Assay results taken from PubChem BioAssay AID1259407 (Chemical Carcinogenesis Research Information System (CCRIS), 2018).
Calls of active or inactive are those of the source. The rule behind the calls is not given here.

System: CCRIS mutagenicity, Ames/micronucleus/aberration tests
Test: CCRIS mutagenicity studies
[1] = Test System: AMES SALMONELLA TYPHIMURIUM, Strain/Indicator: TA98, Metabolic Activation: NONE, Method: STANDARD PLATE
[2] = Test System: AMES SALMONELLA TYPHIMURIUM, Strain/Indicator: TA100, Metabolic Activation: NONE, Method: STANDARD PLATE
[3] = Test System: AMES SALMONELLA TYPHIMURIUM, Strain/Indicator: TA100, Metabolic Activation: RAT, LIVER, S-9, AROCLOR 1254, Method: STANDARD PLATE
[4] = Test System: AMES SALMONELLA TYPHIMURIUM, Strain/Indicator: TA102, Metabolic Activation: NONE, Method: STANDARD PLATE
[5] = Test System: AMES SALMONELLA TYPHIMURIUM, Strain/Indicator: TA1535, Metabolic Activation: NONE, Method: STANDARD PLATE
[6] = Test System: AMES SALMONELLA TYPHIMURIUM, Strain/Indicator: TA98, Metabolic Activation: RAT, LIVER, S-9, AROCLOR 1254, Method: STANDARD PLATE

`O=Cc1ccc(CO)o1` was tested, and the mutagenic call (End Point: In vivo micronucleus, Test System: Peripheral blood normochromatic erythrocytes, Species: Mouse, Strain/Sex: B6C3F1/Female, Route: Oral) was “inactive; negative”, the mutagenic call (End Point: In vivo micronucleus, Test System: Peripheral blood normochromatic erythrocytes, Species: Mouse, Strain/Sex: B6C3F1/Male, Route: Oral) was “inactive; negative” and the mutagenic call [1] was “inactive; negative”. The mutagenic call (Test System: AMES SALMONELLA TYPHIMURIUM, Strain/Indicator: TA98, Metabolic Activation: S-9, Method: STANDARD PLATE) was “active; positive”, the mutagenic call [2] was “inactive; negative” and the mutagenic call (Test System: AMES SALMONELLA TYPHIMURIUM, Strain/Indicator: TA100, Metabolic Activation: S-9, Method: STANDARD PLATE) was “active; positive”. For the same compound, the mutagenic call (Test System: AMES SALMONELLA TYPHIMURIUM, Strain/Indicator: TA104, Metabolic Activation: NONE, Method: PREINCUBATION) was “inactive; negative”, the mutagenic call (Test System: Ames Salmonella typhimurium, Strain/Indicator: TA97, Metabolic Activation: Hamster, Liver, S-9, Aroclor 1254 (10 and 30%), Method: Preincubation) was “inactive; negative” and the mutagenic call (Test System: Ames Salmonella typhimurium, Strain/Indicator: TA97, Metabolic Activation: None, Method: Preincubation) was “inactive; negative”. For the same compound, the mutagenic call (Test System: Ames Salmonella typhimurium, Strain/Indicator: TA97, Metabolic Activation: Rat, Liver, S-9, Aroclor 1254 (10 and 30%), Method: Preincubation) was “inactive; negative”, the mutagenic call (Test System: Ames Salmonella typhimurium, Strain/Indicator: TA98, Metabolic Activation: Hamster, Liver, S-9, Aroclor 1254 (10 and 30%), Method: Preincubation) was “inactive; negative” and the mutagenic call (Test System: Ames Salmonella typhimurium, Strain/Indicator: TA98, Metabolic Activation: None, Method: Preincubation) was “inactive; negative”. The mutagenic call (Test System: Ames Salmonella typhimurium, Strain/Indicator: TA98, Metabolic Activation: Rat, Liver, S-9, Aroclor 1254 (10 and 30%), Method: Preincubation) was “inactive; negative”, the mutagenic call (Test System: Ames Salmonella typhimurium, Strain/Indicator: TA98, Metabolic Activation: Rat, Liver, S-9, Aroclor 1254,10%, Method: Preincubation) was “inactive; negative” and the mutagenic call (Test System: Ames Salmonella typhimurium, Strain/Indicator: TA100, Metabolic Activation: Hamster, Liver, S-9, Aroclor 1254 (10 and 30%), Method: Preincubation) was “inactive; negative”. For the same compound, the mutagenic call (Test System: Ames Salmonella typhimurium, Strain/Indicator: TA100, Metabolic Activation: Rat, Liver, S-9, Aroclor 1254 (10 and 30%), Method: Preincubation) was “inactive; negative”, the mutagenic call (Test System: Ames Salmonella typhimurium, Strain/Indicator: TA100, Metabolic Activation: Rat, Liver, S-9, Aroclor 1254,10%, Method: Preincubation) was “inactive; negative” and the mutagenic call (Test System: Ames Salmonella typhimurium, Strain/Indicator: TA102, Metabolic Activation: Hamster, Liver, S-9, Aroclor 1254 (10 and 30%), Method: Preincubation) was “inactive; negative”. For the same compound, the mutagenic call (Test System: Ames Salmonella typhimurium, Strain/Indicator: TA102, Metabolic Activation: None, Method: Preincubation) was “inactive; negative”, the mutagenic call (Test System: Ames Salmonella typhimurium, Strain/Indicator: TA102, Metabolic Activation: Rat, Liver, S-9, Aroclor 1254 (10 and 30%), Method: Preincubation) was “inactive; negative” and the mutagenic call (Test System: Ames Salmonella typhimurium, Strain/Indicator: TA1535, Metabolic Activation: None, Method: Preincubation) was “inactive; negative”. The mutagenic call (Test System: CHINESE HAMSTER V-79, Strain/Indicator: V-79 (HPRT)/6-THIOGUANINE, Metabolic Activation: NONE, Method: STANDARD PLATE) was “active; positive”, the mutagenic call (Test System: E. coli, Strain/Indicator: WP2 uvrA/pKM101, Metabolic Activation: None, Method: Preincubation) was “inactive; negative” and the mutagenic call (Test System: E. coli, Strain/Indicator: WP2 uvrA/pKM101, Metabolic Activation: Rat, Liver, S-9, Aroclor 1254 (10%), Method: Preincubation) was “inactive; negative”.

With `C1OC1C1CO1` (stereo unspecified) the mutagenic call (End Point: IN VITRO CHROMOSOMAL ABERRATIONS, Test System: HUMAN PERIPHERAL LYMPHOCYTES, Metabolic Activation: NONE, Method: FISH (DUAL COLOR FOR CHROMOSOMES 7, 8, 12 AND X)) was “active; positive (hyperdiploidy of chromosomes 12 and x)”, the mutagenic call (End Point: IN VITRO MICRONUCLEUS, Test System: HUMAN PERIPHERAL LYMPHOCYTES, Metabolic Activation: NONE) was “active; positive” and the mutagenic call [1] was “active; positive”. The mutagenic call [2] was “active; positive”, the mutagenic call [3] was “active; positive” and the mutagenic call [4] was “active; positive”. For the same compound, the mutagenic call [5] was “active; positive”, the mutagenic call (Test System: AMES SALMONELLA TYPHIMURIUM, Strain/Indicator: TA7004, Metabolic Activation: NONE, Method: STANDARD PLATE) was “inactive; negative” and the mutagenic call (Test System: AMES SALMONELLA TYPHIMURIUM, Strain/Indicator: TA7005, Metabolic Activation: NONE, Method: STANDARD PLATE) was “inactive; negative”. For the same compound, the mutagenic call (Test System: CHINESE HAMSTER V-79, Strain/Indicator: V-79/6-THIOGUANINE, Metabolic Activation: NONE, Method: FLASK ASSAY) was “active; positive” and the mutagenic call (Test System: UDS MOUSE EPIDERMIS IN VIVO/IN VITRO, Strain/Indicator: HOS:HR-1/THYMIDINE INCORPORATION, Metabolic Activation: NONE, Method: LIQUID SCINTILLATION) was “active; positive”.

In the case of `CCN(CC)c1ccc(N=Nc2c(Cl)cc([N+](=O)[O-])cc2[N+](=O)[O-])cc1`, the mutagenic call [1] is reported as “inactive; negative”, the mutagenic call [6] is reported as “active; positive” and the mutagenic call [2] is reported as “active; positive”. The mutagenic call [3] was “active; positive”, the mutagenic call [4] was “inactive; negative” and the mutagenic call (Test System: AMES SALMONELLA TYPHIMURIUM, Strain/Indicator: TA102, Metabolic Activation: RAT, LIVER, S-9, AROCLOR 1254, Method: STANDARD PLATE) was “active; positive”. For the same compound, the mutagenic call [5] was “inactive; negative”, the mutagenic call (Test System: AMES SALMONELLA TYPHIMURIUM, Strain/Indicator: TA1535, Metabolic Activation: RAT, LIVER, S-9, AROCLOR 1254, Method: STANDARD PLATE) was “active; positive” and the mutagenic call (Test System: AMES SALMONELLA TYPHIMURIUM, Strain/Indicator: TA1537, Metabolic Activation: NONE, Method: STANDARD PLATE) was “inactive; negative”. The mutagenic call (Test System: AMES SALMONELLA TYPHIMURIUM, Strain/Indicator: TA1537, Metabolic Activation: RAT, LIVER, S-9, AROCLOR 1254, Method: STANDARD PLATE) was “active; positive”, the mutagenic call (Test System: CHINESE HAMSTER V-79, Strain/Indicator: V-79 (HGPRT)/6-THIOGUANINE, Metabolic Activation: NONE) was “inactive; negative” and the mutagenic call (Test System: CHINESE HAMSTER V-79, Strain/Indicator: V-79 (HGPRT)/6-THIOGUANINE, Metabolic Activation: RAT, LIVER, S-9, AROCLOR 1254) was “inactive; negative”. For the same compound, the mutagenic call (Test System: CHINESE HAMSTER V-79, Strain/Indicator: V-79/8-AZAGUANINE, Metabolic Activation: RAT, LIVER, S-9, AROCLOR 1254) was “inactive; negative”, the mutagenic call (Test System: CHINESE HAMSTER V-79, Strain/Indicator: V-79/8-AZAQUANINE, Metabolic Activation: NONE) was “inactive; negative” and the mutagenic call (Test System: UDS RAT HEPATOCYTES, Strain/Indicator: THY INCORP, Metabolic Activation: NONE, Method: AUTORADIOGRAPHY) was “inactive; negative”.

For `CC(Br)C(=O)N(C)Cc1ccccc1` (stereo unspecified), the mutagenic call (Test System: AMES SALMONELLA TYPHIMURIUM, Strain/Indicator: TA100, Metabolic Activation: MOUSE, LIVER, S-9, AROCLOR 1254, Method: STANDARD PLATE) was “inactive; negative” and the mutagenic call [2] was “inactive; negative”.

With `CC/C=C\CC/C=C/C=O` the mutagenic call (Test System: AMES SALMONELLA TYPHIMURIUM, Strain/Indicator: TA100, Metabolic Activation: NONE, Method: PREINCUBATION) was “inactive; negative”, the mutagenic call (Test System: AMES SALMONELLA TYPHIMURIUM, Strain/Indicator: TA100, Metabolic Activation: NONE, Method: PREINCUBATION (THREEFOLD CELL DENSITY)) was “inactive; negative” and the mutagenic call (Test System: AMES SALMONELLA TYPHIMURIUM, Strain/Indicator: TA100, Metabolic Activation: RAT, LIVER, S-9, AROCLOR 1254, Method: PREINCUBATION (THREEFOLD CELL DENSITY)) was “inactive; negative”.

`Cc1ccc2nc3n(C)c4ccc(C)cc4c(C)c-3c2c1` was tested, and the mutagenic call [6] was “active; positive”.
